{"source": "patent US20080214456A1", "about": "“Lkktet and/or Lkktnt Peptide Compositions and Methods” (REGENERX BIOPHARMACEUTICALS, INC., priority 2005, published 2008)", "key": {"[1]": {"tested_on": "Human corneal epithelial cells", "test": "BrdU incorporation cell proliferation assay in BAK-exposed corneal epithelial cells", "format": "cell-based", "method": "(§1) Human corneal epithelial cells at approximately 80% confluence were treated with 0%, 0.001%, 0.01%, or 0.1% BAK for 15 minutes. After 3 and 24 hours of recovery in culture medium, cell proliferation was measured using a calorimetric BrdU incorporation assay. Apoptosis was measured using a calorimetric annexin-based cell death assay. […] To further assess the ability of Tb4 to prevent apoptosis, corneal epithelial cells were treated with 0.01% BAK±Tβ4 over a 5 day time course."}, "[2]": {"tested_on": "Human corneal epithelial cells", "test": "annexin-based cell death (apoptosis) assay in BAK-exposed corneal epithelial cells", "method": "as §1"}, "[3]": {"conditions": "1 mcg/ml Tβ4, BAK-treated cells, 3 and 24 hour time points"}, "[4]": {"conditions": "0.001%, 0.01% or 0.1% BAK for 15 minutes, 3 and 24 hours recovery"}}, "data": [{"substance": "Thymosin beta 4 (SDKPDMAEIEKFDKSKLKKTETQEKNPLPSKETIEQEKQAGES; Thymosin beta-4; UniProt P62328 2-44, looked up) [Tβ4]", "values": [{"measurement": "cell proliferation of BAK-treated cells in presence of Tβ4", "setting": "[1]; [3]", "value": "not promoted"}, {"measurement": "BAK-initiated epithelial cell apoptosis", "setting": "[2]; 0.01% BAK ± Tβ4, longer times in culture (2 to 5 days)", "value": "significantly inhibited"}, {"measurement": "apoptosis of BAK-treated cells in presence of Tβ4", "setting": "[2]; [3]", "value": "not inhibited"}, {"measurement": "apoptosis compared to cells cultured in medium alone", "setting": "[2]; 5 days in culture, no BAK comparison (medium alone)", "value": "decreased apoptosis"}]}, {"substance": "benzalkonium chloride [BAK, reference compound]", "values": [{"measurement": "corneal epithelial cell proliferation compared to control", "setting": "[1]; [4]", "value": "inhibited"}, {"measurement": "apoptosis compared to control", "setting": "[2]; [4]", "value": "increased"}]}]}
